Experimental data published in US20040024024A1, “Aromatic sulfone hydroxamates and their use as protease inhibitors” (priority 2001, published 2004).
pIC50: −log10 of the molar value. Each block holds one compound with its values, some of them ahead of it.

Columns and labels:
Experiment in all cases: In vitro MMP inhibition, IC50 determination (fluorogenic substrate I)
Format in all cases: biochemical
Human recombinant MMP-13 = biological target: T1, Human recombinant MMP-13 (Homo sapiens, UniProt P45452)
T1 construct: made in house; host or cells: baculovirus / insect cells
In short: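 Fluorescence at 415 nm (excitation 328 nm) reports Gly-Leu cleavage of 4 μM quenched methoxycoumarin peptide substrate I. Human recombinant MMP-13, activated by trypsin or APMA, was incubated at room temperature with varied inhibitor concentrations in pH 7.5 Tris/NaCl/CaCl2 buffer; IC50 derived from reduced fluorescence.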

Human recombinant MMP-14 = biological target: T2, Human recombinant MMP-14 (Homo sapiens, UniProt P50281)
T2 construct: The catalytic domain enzyme was expressed in E. coli inclusion bodies, solubilized in urea; made in house
Protocol: (§1) Several hydroxamates and salts thereof were analyzed in in vitro assays to determine their ability to inhibit the MMP cleavage of peptide substrates. Inhibition (Ki) and IC50 constants were calculated from the assayed hydroxamate-MMP interactions.
(§2) Human recombinant MMP-1, MMP-2, MMP-9, MMP-13, and MMP-14 were used in this assay. All enzymes were prepared in Assignee's laboratories following usual laboratory procedures. Protocols for the preparation and use of these enzymes are available in the scientific literature. See, e.g., Enzyme Nomenclature (Academic Press, San Diego, Calif., 1992) (and the citations therein). See also, Frije et al., J. Biol. Chem., 26(24), 16766-73 (1994).
The MMP-14 full length cDNA was provided by Dr. Gregory Goldberg of Washington University (St. Louis, Mo.). The catalytic domain enzyme was expressed in E. coli inclusion bodies, solubilized in urea, purified on a preparative […] reverse phase HPLC column, and then refolded in the presence of zinc acetate and purified for use.
(§3) All MMPs were activated using 4-aminophenylmercuric acetate (“APMA”, Sigma Chemical, St. Louis, Mo.) or trypsin. MMP-9 also was activated using human recombinant MMP-3 (purified in Assignee's laboratory following standard cloning and purification techniques).
(§4) Two fluorogenic, methoxycoumarin-containing polypeptide substrates were used in the MMP inhibition assays:
(§5) MCA-ProLeuGlyLeuDpaAlaArgNH2 (I)
(§6) Here, “Dpa” is 3-(2,4-dinitrophenyl)-L-2,3-diaminopropionyl group, and “MCA” is 7-methoxycoumarin-4-yl acetyl. Substrate (I) was purchased from Baychem (Redwood City, Calif.), and substrate II was prepared Assignee's laboratory. Substrate I was used in the IC50 determination assays, while substrate II was used in the Ki determination assays. In the absence of MMP inhibitory activity, either substrate is cleaved at the Gly-Leu peptide bond. This cleavage separates the highly fluorogenic peptide from the 2,4-dinitrophenyl quencher, thus resulting in increase of fluorescent intensity.
(§7) The stock solutions of the assayed hydroxamates (or salts thereof) were prepared in 1% dimethyl sulfoxide (DMSO). These stock solutions were diluted in Buffer A (100 mM Tris-HCl, 100 mM NaCl, 10 mM CaCl2, 0.05% polyoxyethylene 23 lauryl ether, pH 7.5) to obtain solutions with different hydroxamate concentrations, i.e., assay solutions with different concentrations of the assayed MMP inhibitory compound. The experiment controls contained the same amount of Buffer A/DMSO as the assayed sample, but contained no hydroxamate (or salt thereof).
(§8) The assays from which the IC50 determinations were made were performed as follows. The MMPs were activated with either trypsin or APMA (4-aminophenylmercuric acetate, Sigma Chemical, St. Louis, Mo.). The assayed hydroxamate samples were, incubated in Microfluorrm White Plates (Dynatech, Chantilly, VA) and analyzed on a Perkin Elmer L550 plate reader (Norwalk, Conn.). The excitation wavelength was 328 nm, and the emission wavelength—415 nm. All samples (assayed hydroxamates and controls) were incubated in separate plates at room temperature in the presence of 4 μM of MMP substrate (I). As stated in the previous paragraph, samples containing varying concentrations of the same assayed hydroxamate were prepared. Inhibition was measured as a reduction in fluorescent intensity as a function of MMP inhibitor concentration.

Human recombinant MMP-9 = biological target: T3, Human recombinant MMP-9 (Homo sapiens, UniProt P14780)
T3 construct: made in house; host or cells: MMP-9-transfected HT1080 cells (spent media)
Protocol: as §1, §2
The MMP-9 proenzyme was purified by gelatin Sepharose chromatography from spent media of MMP-9-transfected HT1080 cells provided by Dr. Howard Welgus of Washington University (St. Louis, Mo.).
as §3, §4, §5, §6, §7, §8

Human recombinant MMP-2 = biological target: T4, Human recombinant MMP-2 (Homo sapiens, UniProt P08253)
T4 construct: made in house; host or cells: MMP-2-transfected p2AHT2 cells
T4 sequence (P08253 110-660): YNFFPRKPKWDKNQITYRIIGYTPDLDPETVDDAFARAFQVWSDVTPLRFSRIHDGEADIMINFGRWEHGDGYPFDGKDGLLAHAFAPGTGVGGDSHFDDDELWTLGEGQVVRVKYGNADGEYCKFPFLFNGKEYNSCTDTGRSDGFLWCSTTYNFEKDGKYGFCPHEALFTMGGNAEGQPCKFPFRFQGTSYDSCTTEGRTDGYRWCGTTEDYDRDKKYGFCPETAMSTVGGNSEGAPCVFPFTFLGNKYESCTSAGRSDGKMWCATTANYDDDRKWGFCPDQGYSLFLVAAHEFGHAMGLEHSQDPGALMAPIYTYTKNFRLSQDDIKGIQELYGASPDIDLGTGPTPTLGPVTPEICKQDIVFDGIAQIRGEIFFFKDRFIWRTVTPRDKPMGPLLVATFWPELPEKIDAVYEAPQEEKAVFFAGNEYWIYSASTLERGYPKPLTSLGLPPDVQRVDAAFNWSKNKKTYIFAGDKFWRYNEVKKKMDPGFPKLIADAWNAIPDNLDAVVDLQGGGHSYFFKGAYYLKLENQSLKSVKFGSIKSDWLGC
In short: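 APMA- or trypsin-activated recombinant MMP-2 was incubated at room temperature with serial inhibitor dilutions in Tris buffer pH 7.5 (100 mM NaCl, 10 mM CaCl2, 0.05% Brij), with DMSO from 1% stocks, and 4 μM substrate I. Cleavage was read by fluorescence at 328/415 nm; IC50 was taken from the loss of fluorescence versus inhibitor concentration.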

Human recombinant MMP-1 = biological target: T5, Human recombinant MMP-1 (Homo sapiens, UniProt P03956)
T5 construct: made in house; host or cells: MMP-1-transfected HT-1080 cells (spent media)
T5 sequence (P03956 100-469): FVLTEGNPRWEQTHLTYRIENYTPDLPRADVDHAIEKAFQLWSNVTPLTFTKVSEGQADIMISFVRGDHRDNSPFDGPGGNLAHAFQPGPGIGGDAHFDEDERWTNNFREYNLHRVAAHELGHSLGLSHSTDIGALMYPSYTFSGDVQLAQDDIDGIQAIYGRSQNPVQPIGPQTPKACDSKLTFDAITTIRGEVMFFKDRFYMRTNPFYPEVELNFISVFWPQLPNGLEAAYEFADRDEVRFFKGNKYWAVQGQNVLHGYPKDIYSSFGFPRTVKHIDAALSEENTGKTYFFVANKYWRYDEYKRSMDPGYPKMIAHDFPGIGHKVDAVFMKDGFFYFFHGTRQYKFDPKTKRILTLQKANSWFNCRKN
Protocol: as §1, §2
The MMP-1 proenzyme was purified from the spent media of MMP-1-transfected HT-1080 cells provided by Dr. Harold Welgus of Washington University (St. Louis, Mo.). The protein was purified on a zinc chelating column.
as §3, §4, §5, §6, §7, §8

[1] = value outside parentheses (Ki in parenthesis)
[2] = substrate (I) 4 μM, room temperature, values not in parenthesis

T3 sequence (P14780 107-707 limits assumed): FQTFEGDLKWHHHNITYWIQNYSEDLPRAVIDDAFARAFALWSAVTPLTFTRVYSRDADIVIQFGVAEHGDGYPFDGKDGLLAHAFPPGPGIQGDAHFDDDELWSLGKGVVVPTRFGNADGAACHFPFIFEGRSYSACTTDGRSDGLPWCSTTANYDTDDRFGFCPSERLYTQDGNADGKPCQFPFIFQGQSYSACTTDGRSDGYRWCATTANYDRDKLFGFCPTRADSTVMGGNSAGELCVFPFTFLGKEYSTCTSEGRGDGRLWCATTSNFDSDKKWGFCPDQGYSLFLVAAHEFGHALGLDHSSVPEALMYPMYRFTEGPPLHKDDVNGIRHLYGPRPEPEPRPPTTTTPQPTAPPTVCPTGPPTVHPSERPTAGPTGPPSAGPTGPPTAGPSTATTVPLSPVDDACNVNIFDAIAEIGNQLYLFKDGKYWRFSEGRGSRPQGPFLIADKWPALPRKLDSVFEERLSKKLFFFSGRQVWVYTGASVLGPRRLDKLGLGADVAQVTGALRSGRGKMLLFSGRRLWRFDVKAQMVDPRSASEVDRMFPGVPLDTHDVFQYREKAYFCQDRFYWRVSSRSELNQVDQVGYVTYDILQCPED

Compound: COc1cc2c(cc1OC)C(C)N(C(=O)OCCCCOc1ccc(S(=O)(=O)C3(C(=O)NO)CCOCC3)cc1)CC2 (stereo not shown) [Example 335]
- pIC50 (Human recombinant MMP-13; [1]): 8.19
- pIC50 (Human recombinant MMP-14; [1]): < 5.00
- pIC50 (Human recombinant MMP-9; [1]): 6.76
- pIC50 (Human recombinant MMP-2; [1]): 8.64
- pIC50 (Human recombinant MMP-1; [1]): < 5.00

Compound: O=C(NO)C1(S(=O)(=O)c2ccc(OCCCCS(=O)(=O)C3CCCCC3)cc2)CCOCC1 [Example 348]
- pIC50 (Human recombinant MMP-13; [1]): 8.36
- pIC50 (Human recombinant MMP-14; [1]): < 5.00
- pIC50 (Human recombinant MMP-9; [1]): < 5.00
- pIC50 (Human recombinant MMP-2; [1]): 7.21
- pIC50 (Human recombinant MMP-1; [1]): < 5.00

Compound: O=C(NO)C1(S(=O)(=O)c2ccc(OCCCSc3nc4ccccc4o3)cc2)CCN(C2CC2)CC1 [Example 203]
- pIC50 (Human recombinant MMP-13; value outside parenthesis): 9.00
- pIC50 (Human recombinant MMP-14; value outside parenthesis): < 5.00
- pIC50 (Human recombinant MMP-9; value outside parenthesis): 8.22
- pIC50 (Human recombinant MMP-2; value outside parenthesis): 8.38
- pIC50 (Human recombinant MMP-1; value outside parenthesis): < 5.00

Compound: O=C(NO)C1(S(=O)(=O)c2ccc(OCCCc3nc(-c4cccc(Cl)c4Cl)no3)cc2)CCOCC1 [Example 213]
- pIC50 (Human recombinant MMP-13; value outside parenthesis): 8.66
- pIC50 (Human recombinant MMP-14; value outside parenthesis): < 5.00
- pIC50 (Human recombinant MMP-9; value outside parenthesis): 5.66
- pIC50 (Human recombinant MMP-2; value outside parenthesis): 7.26
- pIC50 (Human recombinant MMP-1; value outside parenthesis): < 5.00

Compound: CN(CCCOc1ccc(S(=O)(=O)C2(C(=O)NO)CCOCC2)cc1)C(=O)c1ccc(N(C)C)cc1 [Example 19, 4-[[4-[3-[[4-(dimethylamino)benzoyl]methylamino]propoxy]phenyl]sulfonyl]tetrahydro-N-hydroxy-2H-pyran-4-carboxamide]
- pIC50 (Human recombinant MMP-13; [2]): 7.82
- pIC50 (Human recombinant MMP-14; [2]): < 5.00
- pIC50 (Human recombinant MMP-9; [2]): 5.28
- pIC50 (Human recombinant MMP-2; [2]): 5.05
- pIC50 (Human recombinant MMP-1; [2]): < 5.00

Compound: Cc1cc(C)nc(SCCCOc2ccc(S(=O)(=O)C3(C(=O)NO)CCOCC3)cc2)n1 [Example 286]
- pIC50 (Human recombinant MMP-13; value outside parenthesis): 8.40
- pIC50 (Human recombinant MMP-14; value outside parenthesis): < 5.00
- pIC50 (Human recombinant MMP-9; value outside parenthesis): 5.95
- pIC50 (Human recombinant MMP-2; value outside parenthesis): 7.13
- pIC50 (Human recombinant MMP-1; value outside parenthesis): < 5.00

More lines, now with the values ahead:

- pIC50 (Human recombinant MMP-13; value outside parenthesis): 8.01
- pIC50 (Human recombinant MMP-14; value outside parenthesis): < 5.00
- pIC50 (Human recombinant MMP-9; value outside parenthesis): 5.11
- pIC50 (Human recombinant MMP-2; value outside parenthesis): 5.86
- pIC50 (Human recombinant MMP-1; value outside parenthesis): < 5.00
Compound: CC(C)C[C@@H]1C(=O)N(CCCOc2ccc(S(=O)(=O)C3(C(=O)NO)CCOCC3)cc2)C(=O)N1c1ccccc1 [Example 105]

- pIC50 (Human recombinant MMP-13; value outside parentheses): 8.14
- pIC50 (Human recombinant MMP-14; value outside parentheses): 5.57
- pIC50 (Human recombinant MMP-9; value outside parentheses): 7.41
- pIC50 (Human recombinant MMP-2; value outside parentheses): 7.71
- pIC50 (Human recombinant MMP-1; value outside parentheses): < 5.00
Compound: O=C(NO)C1(S(=O)(=O)c2ccc(OCCOc3cccc(F)c3)cc2)CCOCC1 [Example 669]

- pIC50 (Human recombinant MMP-13; value outside parenthesis): 8.70
- pIC50 (Human recombinant MMP-14; value outside parenthesis): < 5.00
- pIC50 (Human recombinant MMP-9; value outside parenthesis): 5.03
- pIC50 (Human recombinant MMP-2; value outside parenthesis): 6.09
- pIC50 (Human recombinant MMP-1; value outside parenthesis): < 5.00
Compound: C[C@@H]1C(=O)N(CCCOc2ccc(S(=O)(=O)C3(C(=O)NO)CCOCC3)cc2)C(=O)N1c1ccccc1 [Example 145]

- pIC50 (Human recombinant MMP-13; value outside parentheses): 9.21
- pIC50 (Human recombinant MMP-14; value outside parentheses): 5.37
- pIC50 (Human recombinant MMP-9; value outside parentheses): 7.44
- pIC50 (Human recombinant MMP-2; value outside parentheses): 7.27
- pIC50 (Human recombinant MMP-1; value outside parentheses): < 5.00
Compound: O=C(NO)C1(S(=O)(=O)c2ccc(OCCCOCc3cccnc3)cc2)CCOCC1 [Example 520]

- pIC50 (Human recombinant MMP-13; [1]): 8.57
- pIC50 (Human recombinant MMP-14; [1]): < 5.00
- pIC50 (Human recombinant MMP-9; [1]): < 5.00
- pIC50 (Human recombinant MMP-2; [1]): 6.04
- pIC50 (Human recombinant MMP-1; [1]): < 5.00
Compound: O=C(NCCCOc1ccc(S(=O)(=O)C2(C(=O)NO)CCOCC2)cc1)c1cnc2ccccc2c1 [Example 390]
